From PMC6509188, “Enterococcus faecalis Encodes an Atypical Auxiliary Acyl Carrier Protein Required for Efficient Regulation of Fatty Acid Synthesis by Exogenous Fatty Acids” (mBio, 2019)

Experiments:
Format in all cases: biochemical
[1] = target: T1, AasS (Vibrio harveyi, UniProt Q00IB3); test: acyl-ACP synthesis, urea-PAGE; conditions: acceptor holo-AcpA or holo-AcpB of E. faecalis; 2 mM ATP, 200 uM acid, 37 C
T1 construct: N-terminal hexahistidine tag, expressed from pYFJ84, nickel-chelate purified; used to prepare acyl-ACPs

[2] = target: T2, PlsX (Enterococcus faecalis, UniProt Q82ZE8); test: acyl transfer to holo-ACP, urea-PAGE; conditions: acyl acceptor holo-AcpB of E. faecalis; 0.05 uM PlsX, 0.75 mM Mg2+, 0.5 mM DTT, 0.1 M HEPES pH 7.0, 37 C
T2 construct: N-terminal hexahistidine tag, expressed from pZL391 in E. coli, purified
T2 sequence (Q82ZE8 1-333): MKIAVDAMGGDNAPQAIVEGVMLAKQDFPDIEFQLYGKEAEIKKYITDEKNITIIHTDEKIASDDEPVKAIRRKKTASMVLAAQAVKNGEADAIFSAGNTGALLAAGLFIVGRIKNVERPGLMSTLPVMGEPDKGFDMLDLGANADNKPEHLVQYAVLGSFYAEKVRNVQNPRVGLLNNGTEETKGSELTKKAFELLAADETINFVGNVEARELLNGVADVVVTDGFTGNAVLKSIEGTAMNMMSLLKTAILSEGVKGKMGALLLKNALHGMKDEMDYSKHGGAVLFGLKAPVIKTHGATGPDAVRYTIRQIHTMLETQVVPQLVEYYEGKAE

[3] = target: T3, AcpS (Enterococcus faecalis, UniProt Q820V0); test: conversion of apo-ACP to holo-ACP, PAGE; conditions: acceptor apo-AcpA or apo-AcpB of E. faecalis; Mg2+, Tris-HCl pH 8.0, 37 C
T3 construct: N-terminal hexahistidine tag, expressed from pZL311, nickel-chelate purified
T3 sequence (Q820V0 1-117): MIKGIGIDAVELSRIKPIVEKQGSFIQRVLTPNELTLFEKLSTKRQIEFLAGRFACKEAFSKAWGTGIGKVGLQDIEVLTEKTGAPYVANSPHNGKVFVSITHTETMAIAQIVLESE

T1 sequence (Q00IB3 entry or part of it): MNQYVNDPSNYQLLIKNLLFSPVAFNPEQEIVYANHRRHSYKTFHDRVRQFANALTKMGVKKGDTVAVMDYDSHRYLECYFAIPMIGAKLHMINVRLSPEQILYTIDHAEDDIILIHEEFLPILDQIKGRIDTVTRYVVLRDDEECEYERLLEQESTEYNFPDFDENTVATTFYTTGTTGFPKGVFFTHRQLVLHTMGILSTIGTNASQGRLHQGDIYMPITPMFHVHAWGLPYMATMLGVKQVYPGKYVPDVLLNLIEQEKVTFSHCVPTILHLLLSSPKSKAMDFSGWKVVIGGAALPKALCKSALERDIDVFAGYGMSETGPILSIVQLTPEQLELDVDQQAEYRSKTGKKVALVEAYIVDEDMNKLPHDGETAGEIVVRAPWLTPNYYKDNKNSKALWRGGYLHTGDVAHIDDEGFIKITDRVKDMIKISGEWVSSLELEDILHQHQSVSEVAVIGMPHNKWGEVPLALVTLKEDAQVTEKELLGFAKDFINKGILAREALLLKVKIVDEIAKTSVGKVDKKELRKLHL

`CCCCCCC/C=C/C(=O)O` [trans-2-decenoic acid] was tested. Which “acyl-ACP synthesis, urea-PAGE” value [1] did it give?
The value was “Incubation of the holo proteins with AasS, ATP, and trans-2-decenoic acid resulted in trans-2-decenoyl-AcpA”.

For `CCCCCCCCCCCCCCCCCC(=O)OP(=O)(O)O` [stearoyl-phosphate], which “acyl transfer to holo-ACP, urea-PAGE” value [2] is on record?
The value was “AcpB was fully converted into acyl-AcpB when stearoyl-phosphate (C18:0-PO4) or oleyl-phosphate (C18:1-PO4)”.

Which “conversion of apo-ACP to holo-ACP, PAGE” value [3] does the source give for `CC(C)(COP(=O)(O)OP(=O)(O)OC[C@H]1O[C@@H](n2cnc3c(N)ncnc32)[C@H](O)[C@@H]1OP(=O)(O)O)[C@@H](O)C(=O)NCCC(=O)NCCS` [CoA] here?
The value was “treated with E. faecalis AcpS and coenzyme A (CoA)”.
